Reference: paper PMC8318587, “Structure-guided microbial targeting of antistaphylococcal prodrugs” (eLife, 2021)
Values after ≈ are worked out from the molar mass of the structure shown. Read-outs that look alike come from different tables or passages of the source.

Assays:
[1] = test system: S. aureus (JE2, NTML transposon mutants, Newman resistant isolates); test: POM-HEX half-maximal growth inhibitory concentration (IC50), microtiter broth dilution; type: cell-based; conditions: Staphylococcus aureus
Protocol: Half-maximal inhibitory concentration (IC50) determination was performed using microtiter broth dilution in clear 96-well plates ([European Committee for Antimicrobial Susceptibility Testing (EUCAST) of the ES of CM and ID (ESCMID), 2000]). Briefly, POM-HEX was added to 75 µL LB media at a final concentration of 20–50 µM POM-HEX and 0.5% DMSO, with POM-HEX concentrations varying according to resistant strain. Subsequently, POM-HEX was serially diluted in LB media containing 0.5% DMSO for a total of 10 dilutions. Two wells were left without drug, one used to define 100% growth, and the other used to control for media contamination and to define 0% growth. Seventy-five microliters of mid-log phase S. aureus diluted to 1 × 10^5 colony forming units/mL were subsequently added to the plate. Following inoculation, plates were incubated at 37°C with shaking, and OD600 measurements were taken every 20 min for a total of 16 hr. Half-maximal inhibitory concentrations (IC50) were determined by fitting the OD600 of each condition following 10 hr of growth to a nonlinear regression using GraphPad Prism software. Experiments were performed in triplicate with technical duplicates.
Generation of POM-HEX resistant strains was performed by plating log-phase S. aureus Newman on LB agar containing 3.33 μM POM-HEX and incubating at 37°C overnight. Surviving single colonies were grown overnight in LB media and frozen in 10% glycerol for long term storage. All assays were performed from fresh overnight inoculations from glycerol stocks.

S. aureus Newman [2] = test: Minimum inhibitory concentration (MIC) in liquid LB media; type: cell-based; conditions: Staphylococcus aureus, NEWMAN
Protocol: (§1) Antibiotic resistance frequency was determined on LB agar plates containing 4× and 10×, the minimum inhibitory concentrations of several antibiotics. MICs were determined for S. aureus Newman in liquid LB media. […] Briefly, S. aureus Newman was grown in LB media to late log-phase and centrifuged at 4000 × g for 15 min before resuspension at an OD600 nm of 30 (~1E11 CFU/mL) in LB media. One hundred microliter aliquots of concentrated S. aureus was plated in duplicate on selective and non-selective plates and incubated at 37°C. After 24 hr, mutation rates were calculated by counting the number of colonies present and dividing by the total number of colonies plated. Experiments were performed in triplicate.

S. aureus Newman [3] = type: cell-based, Staphylococcus aureus; conditions: LB agar, 24 hr, mean ± SD
Protocol: as §1

GloB = test system: GloB; set-up: method as in Mikati et al., 2020; conditions: ref Mikati et al., 2020; cited from earlier work

Work on CC(C)(C)C(=O)OCOP(=O)(OCOC(=O)C(C)(C)C)C1CCCN(O)C1=O (stereo not shown) [POM-HEX] yielded an IC50 ([1]; 10 h, read-out: POM-HEX IC50, S. aureus JE2 parental strain, OD600 at 10 hr) of 1540 nM, an IC50 ([1]; read-out: POM-HEX IC50, transposon mutant NE64 (hemY, SAUSA300_1781)) of 1430 nM and an IC50 ([1]; read-out: POM-HEX IC50, transposon mutant NE145 (uvrA, SAUSA300_0742)) of 1460 nM. For the same compound, the IC50 ([1]; read-out: POM-HEX IC50, transposon mutant NE202 (SAUSA300_1902)) was 700 nM, the IC50 ([1]; read-out: POM-HEX IC50, transposon mutant NE223 (truA, SAUSA300_2173)) was 1390 nM and the IC50 ([1]; read-out: POM-HEX IC50, transposon mutant NE293 (SAUSA300_1285)) was 1410 nM. It also gave an IC50 ([1]; read-out: POM-HEX IC50, transposon mutant NE355 (gbaA, SAUSA300_2515)) of 1730 nM, an IC50 ([1]; read-out: POM-HEX IC50, transposon mutant NE364 (SAUSA300_0671)) of 1650 nM and an IC50 ([1]; read-out: POM-HEX IC50, transposon mutant NE377 (GloB, SAUSA300_1505)) of 10600 nM. The IC50 ([1]; read-out: POM-HEX IC50, transposon mutant NE386 (rot, SAUSA300_1708)) was 1400 nM, the IC50 ([1]; read-out: POM-HEX IC50, transposon mutant NE478 (phnE, SAUSA300_0142)) was 1610 nM and the IC50 ([1]; read-out: POM-HEX IC50, transposon mutant NE503 (estA, FrmB, SAUSA300_2564)) was 6280 nM. For the same compound, the IC50 ([1]; read-out: POM-HEX IC50, transposon mutant NE520 (proC, SAUSA300_1452)) was 1470 nM, the IC50 ([1]; read-out: POM-HEX IC50, transposon mutant NE532 (SAUSA300_2473)) was 1560 nM and the IC50 ([1]; read-out: POM-HEX IC50, transposon mutant NE541 (SAUSA300_0201)) was 1600 nM. For the same compound, the IC50 ([1]; read-out: POM-HEX IC50, transposon mutant NE621 (SAUSA300_0581)) was 1620 nM, the IC50 ([1]; read-out: POM-HEX IC50, transposon mutant NE812 (SAUSA300_0299)) was 1640 nM and the IC50 ([1]; read-out: POM-HEX IC50, transposon mutant NE929 (mtlF, SAUSA300_2105)) was 1700 nM. The IC50 ([1]; read-out: POM-HEX IC50, transposon mutant NE937 (fruC, SAUSA300_1993)) was 1670 nM, the IC50 ([1]; read-out: POM-HEX IC50, transposon mutant NE949 (hsdM2, SAUSA300_1752)) was 1730 nM and the IC50 ([1]; read-out: POM-HEX IC50, transposon mutant NE1039 (psuG, SAUSA300_0312)) was 1730 nM. It also gave an IC50 ([1]; read-out: POM-HEX IC50, transposon mutant NE1071 (capD, SAUSA300_0538)) of 1540 nM, an IC50 ([1]; read-out: POM-HEX IC50, transposon mutant NE1118 (dapD, SAUSA300_1290)) of 1690 nM and an IC50 ([1]; read-out: POM-HEX IC50, transposon mutant NE1127 (lpl4, SAUSA300_0414)) of 1720 nM. It also gave an IC50 ([1]; read-out: POM-HEX IC50, transposon mutant NE1173 (SAUSA300_1792)) of 1840 nM, an IC50 ([1]; read-out: POM-HEX IC50, transposon mutant NE1225 (SAUSA300_0421)) of 2150 nM and an IC50 ([1]; read-out: POM-HEX IC50, transposon mutant NE1238 (SAUSA300_0214)) of 2080 nM. The IC50 ([1]; read-out: POM-HEX IC50, transposon mutant NE1283 (tnp, SAUSA300_0028)) was 2100 nM, the IC50 ([1]; read-out: POM-HEX IC50, transposon mutant NE1296 (saeS, SAUSA300_0690)) was 2070 nM and the IC50 ([1]; read-out: POM-HEX IC50, transposon mutant NE1486 (phoP, SAUSA300_1639)) was 2180 nM. The IC50 ([1]; read-out: POM-HEX IC50, transposon mutant NE1505 (SAUSA300_0840)) was 2200 nM, the IC50 ([1]; read-out: POM-HEX IC50, transposon mutant NE1519 (accC, SAUSA300_1563)) was 1750 nM and the IC50 ([1]; read-out: POM-HEX IC50, transposon mutant NE1547 (SAUSA300_2508)) was 1480 nM. For the same compound, the IC50 ([1]; read-out: POM-HEX IC50, transposon mutant NE1610 (pdhD, SAUSA300_0996)) was 1230 nM, the IC50 ([1]; read-out: POM-HEX IC50, transposon mutant NE1682 (hlgB, SAUSA300_2367)) was 1370 nM and the IC50 ([1]; read-out: POM-HEX IC50, transposon mutant NE1723 (SAUSA300_0094)) was 1340 nM. For the same compound, the MIC (S. aureus Newman [2]) was 3.13 µg/mL (≈ 7.39 µM), the “Mutational frequency at 4× MIC” value (S. aureus Newman [3]) was 5.96 ± 1.60 E-07 and the “Mutational frequency at 10× MIC” value (S. aureus Newman [3]) was 2.92 ± 0.57 E-07. For the same compound, the “Prodrug activation product with GloB, in words” value (GloB) was “removes only one POM moiety”.
